The text below walks through data of US11718622B2, “Heterocyclic adenosine receptor antagonists” (Exelixis, Inc., priority 2020, dated 2023).

Each structure is given as a SMILES string.

Experiment [1] deals with Adenosine A2a (ADORA2A) receptor (Homo sapiens (Human), UniProt P29274). Briefly: ADORA2A Receptor Binding Assay. The following applies: radioligand binding, membrane stock. The method, boiled down:
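Test compounds incubated with A2a receptor membranes and a ³H-labelled radioligand for 2 hours at room temperature, then filtered through PEI-presoaked GF/C plates and washed. Filter-bound ³H counted by scintillation; % inhibition calculated from background-subtracted signal relative to high control.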

Experiment [2] deals with Adenosine A2B (ADORA2B) receptor (Homo sapiens (Human), UniProt P29275). Kind of experiment: ADORA2B Receptor Binding Assay. To be noted: radioligand binding, membrane stock. In outline:
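Radioligand competition binding on human A2B receptor membranes, 1 h at room temperature, then filtration through BSA-presoaked GF/C filters and ³H counting by scintillation. Inhibition expressed as % of high control after background subtraction.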

Adenosine A2B (ADORA2B) receptor, sequence (P29275 whole entry): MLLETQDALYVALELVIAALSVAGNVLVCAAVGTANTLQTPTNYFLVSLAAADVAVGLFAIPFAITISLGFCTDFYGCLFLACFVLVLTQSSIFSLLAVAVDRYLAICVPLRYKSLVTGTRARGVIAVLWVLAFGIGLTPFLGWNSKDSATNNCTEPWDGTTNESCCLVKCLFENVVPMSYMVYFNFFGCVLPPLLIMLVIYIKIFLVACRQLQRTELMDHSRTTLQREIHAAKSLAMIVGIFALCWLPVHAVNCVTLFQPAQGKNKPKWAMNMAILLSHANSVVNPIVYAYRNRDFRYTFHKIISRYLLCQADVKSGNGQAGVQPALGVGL
Adenosine A2a (ADORA2A) receptor, sequence (P29274 whole entry): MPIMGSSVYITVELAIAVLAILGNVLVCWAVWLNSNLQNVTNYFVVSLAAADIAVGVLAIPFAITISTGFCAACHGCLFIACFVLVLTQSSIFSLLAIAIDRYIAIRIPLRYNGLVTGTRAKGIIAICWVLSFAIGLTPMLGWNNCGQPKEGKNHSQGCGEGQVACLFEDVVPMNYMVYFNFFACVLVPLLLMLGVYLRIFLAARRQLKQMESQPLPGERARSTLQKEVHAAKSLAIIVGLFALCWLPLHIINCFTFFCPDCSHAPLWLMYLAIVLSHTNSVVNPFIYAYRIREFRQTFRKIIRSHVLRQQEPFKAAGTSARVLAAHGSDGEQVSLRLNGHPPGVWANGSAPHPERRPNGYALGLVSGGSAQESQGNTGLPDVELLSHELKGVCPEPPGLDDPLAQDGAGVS

On to `CC(=O)Nc1cc2nc(CF)nn2c(-c2ccco2)n1` [Compound 139, N-[2-(fluoromethyl)-5-(furan-2-yl)-[1,2,4]triazolo[1,5-c]pyrimidin-7-yl]acetamide], for which the concentration for half-maximal inhibition (IC50) (as a rule, the point on the concentration scale where inhibition reaches its midpoint) in experiment [1] was below 10 nM; in experiment [2], 10 to 100 nM.

For the compound `CNC(=O)Nc1cc2nc(C)nn2c(-c2ccc(F)c(F)c2)n1` [Compound 140, 1-[5-(3,4-difluorophenyl)-2-methyl-[1,2,4]triazolo[1,5-c]pyrimidin-7-yl]-3-methylurea], the results for the IC50 in experiment [1] and in experiment [2] were 10 to 100 nM and 100 to 1000 nM, respectively.

On to `Cc1nc2c(Cl)c(N)nc(-c3ccc(F)c(F)c3)n2n1` [Compound 141, 8-chloro-5-(3,4-difluorophenyl)-2-methyl-[1,2,4]triazolo[1,5-c]pyrimidin-7-amine], for which the half-maximal inhibitory concentration (IC50) fell in the range of 10 to 100 nM in experiment [1] and 100 to 1000 nM in experiment [2].

Take `Cc1nc2cc(N)nc(-c3cccc(F)c3)n2n1` [Compound 142, 5-(3-fluorophenyl)-2-methyl-[1,2,4]triazolo[1,5-c]pyrimidin-7-amine]: the concentration for half-maximal inhibition (IC50) was in the range of 10 to 100 nM in experiment [1] and 100 to 1000 nM in experiment [2].

`Cc1nc2cc(NC(=O)C(F)(F)F)nc(-c3ccco3)n2n1` [Compound 143, 2,2,2-trifluoro-N-[5-(furan-2-yl)-2-methyl-[1,2,4]triazolo[1,5-c]pyrimidin-7-yl]acetamide]: the IC50 in experiment [1] lay in the range of 10 to 100 nM; in experiment [2], 100 to 1000 nM.

Consider `Cc1nc2cc(NC(=O)C(F)F)nc(-c3ccco3)n2n1` [Compound 144, 2,2-difluoro-N-[5-(furan-2-yl)-2-methyl-[1,2,4]triazolo[1,5-c]pyrimidin-7-yl]acetamide], for which the 50% inhibitory concentration (IC50) in experiment [1] and in experiment [2] was below 10 nM each time.

Regarding `Cc1nc2cc(NC(=O)CF)nc(-c3ccco3)n2n1` [Compound 145, 2-fluoro-N-[5-(furan-2-yl)-2-methyl-[1,2,4]triazolo[1,5-c]pyrimidin-7-yl]acetamide], the half-inhibitory concentration (IC50) in experiment [1] and in experiment [2] was 10 to 100 nM each time.

With `Cc1nc2c(Cl)c(N)nc(-c3cccc(F)c3)n2n1` [Compound 146, 8-chloro-5-(3-fluorophenyl)-2-methyl-[1,2,4]triazolo[1,5-c]pyrimidin-7-amine], the IC50 was below 10 nM in experiment [1] and 10 to 100 nM in experiment [2].

Turning to `Cc1ccc(-c2nc3[nH]c(C(C)(C)O)cc3c3nc(C(F)(F)F)nn23)o1` [Compound 147, 2-[7-(5-methylfuran-2-yl)-4-(trifluoromethyl)-3,5,6,8,10-pentazatricyclo[7.3.0.0^2,6]dodeca-1(9),2,4,7,11-pentaen-11-yl]propan-2-ol], the concentration for half-maximal inhibition (IC50) in experiment [1] and in experiment [2] was below 10 nM throughout.

Consider `O=C(Nc1cc2nc(C(F)F)nn2c(-c2ccco2)n1)C1CC1` [Compound 148, N-[2-(difluoromethyl)-5-(furan-2-yl)-[1,2,4]triazolo[1,5-c]pyrimidin-7-yl]cyclopropanecarboxamide], for which the IC50 in experiment [1] and in experiment [2] was below 10 nM in each case.

For `O=C(Nc1cc2nc(CF)nn2c(-c2ccco2)n1)C1CC1` [Compound 149, N-[2-(fluoromethyl)-5-(furan-2-yl)-[1,2,4]triazolo[1,5-c]pyrimidin-7-yl]cyclopropanecarboxamide], the IC50 is below 10 nM in experiment [1] and 10 to 100 nM in experiment [2].

Turning to `CC(=O)Nc1cc2nc(C3CNC3)nn2c(-c2ccc(C)o2)n1` [Compound 150, N-[2-(azetidin-3-yl)-5-(5-methylfuran-2-yl)-[1,2,4]triazolo[1,5-c]pyrimidin-7-yl]acetamide], the values for the IC50 in experiment [1] and in experiment [2] were 100 to 1000 nM and above 1000 nM, respectively.

Turning to `CC(=O)Nc1cc2nc(C3CN(C)C3)nn2c(-c2ccco2)n1` [Compound 151, N-[5-(furan-2-yl)-2-(1-methylazetidin-3-yl)-[1,2,4]triazolo[1,5-c]pyrimidin-7-yl]acetamide], the results for the concentration for half-maximal inhibition (IC50) in experiment [1] and in experiment [2] were 10 to 100 nM and above 1000 nM, respectively.

On to `Cc1nc2cc(NC(N)=O)nc(-c3ccco3)n2n1` [Compound 152, [5-(furan-2-yl)-2-methyl-[1,2,4]triazolo[1,5-c]pyrimidin-7-yl]urea], for which the 50% inhibitory concentration (IC50) in experiment [1] and in experiment [2] was 10 to 100 nM each time.

With `Cc1ccc(-c2nc3[nH]ncc3c3nc(C(F)(F)F)nn23)o1` [Compound 153, 7-(5-methylfuran-2-yl)-4-(trifluoromethyl)-3,5,6,8,10,11-hexazatricyclo[7.3.0.0^2,6]dodeca-1(9),2,4,7,11-pentaene], the IC50 was below 10 nM in experiment [1] and 10 to 100 nM in experiment [2].

For the compound `CCCNC(=O)Nc1cc2nc(C)nn2c(-c2ccco2)n1` [Compound 154, 1-[5-(furan-2-yl)-2-methyl-[1,2,4]triazolo[1,5-c]pyrimidin-7-yl]-3-propylurea], the IC50 in experiment [1] and in experiment [2] was 10 to 100 nM in each case.

Regarding `CCNC(=O)Nc1cc2nc(C)nn2c(-c2ccco2)n1` [Compound 155, 1-ethyl-3-[5-(furan-2-yl)-2-methyl-[1,2,4]triazolo[1,5-c]pyrimidin-7-yl]urea], the IC50 in experiment [1] and in experiment [2] was 10 to 100 nM throughout.

Turning to `Cc1nc2cc(NC(=O)NCC(C)C)nc(-c3ccco3)n2n1` [Compound 156, 1-[5-(furan-2-yl)-2-methyl-[1,2,4]triazolo[1,5-c]pyrimidin-7-yl]-3-(2-methylpropyl)urea], the IC50 in experiment [1] was below 10 nM; in experiment [2], 10 to 100 nM.

Turning to `Cc1nc2cc(NC(=O)NCCN3CCCC3)nc(-c3ccco3)n2n1` [Compound 157, 1-[5-(furan-2-yl)-2-methyl-[1,2,4]triazolo[1,5-c]pyrimidin-7-yl]-3-(2-pyrrolidin-1-ylethyl)urea], the IC50 in experiment [1] is below 10 nM; in experiment [2], 10 to 100 nM.

On to `Cc1nc2cc(NC(=O)NCCN3CCCCC3)nc(-c3ccco3)n2n1` [Compound 158, 1-[5-(furan-2-yl)-2-methyl-[1,2,4]triazolo[1,5-c]pyrimidin-7-yl]-3-(2-piperidin-1-ylethyl)urea], for which the 50% inhibitory concentration (IC50) in experiment [1] is below 10 nM; in experiment [2] it was 10 to 100 nM.

As to `Cc1nc2cc(NC(=O)NCCN3CCOCC3)nc(-c3ccco3)n2n1` [Compound 159, 1-[5-(furan-2-yl)-2-methyl-[1,2,4]triazolo[1,5-c]pyrimidin-7-yl]-3-(2-morpholin-4-ylethyl)urea], the figures for the IC50 in experiment [1] and in experiment [2] were below 10 nM and 10 to 100 nM, respectively.

`Nc1nc(-c2ccccc2)n2nc(C(F)F)nc2c1Cl` [Compound 160, 8-chloro-2-(difluoromethyl)-5-phenyl-[1,2,4]triazolo[1,5-c]pyrimidin-7-amine]: the IC50 in experiment [1] was below 10 nM; in experiment [2], 10 to 100 nM.

In the case of `Cc1nc2c3nc(C(F)(F)F)[nH]c3nc(-c3ccc(C)o3)n2n1` [Compound 161, 8-methyl-5-(5-methylfuran-2-yl)-2-(trifluoromethyl)-3H-[1,2,4]triazolo[5,1-f]purine], the IC50 in experiment [1] and in experiment [2] was 100 to 1000 nM throughout.

As to `Cc1ccc(-c2nc3[nH]c(C(C)(C)O)cc3c3nc(C(C)C)nn23)o1` [Compound 162, 2-[7-(5-methylfuran-2-yl)-4-propan-2-yl-3,5,6,8,10-pentazatricyclo[7.3.0.0^2,6]dodeca-1(9),2,4,7,11-pentaen-11-yl]propan-2-ol], the IC50 in experiment [1] was below 10 nM; in experiment [2], 10 to 100 nM.

Turning to `Cc1nc2cc(NC(=O)NC(C)C)nc(-c3ccco3)n2n1` [Compound 163, 1-[5-(furan-2-yl)-2-methyl-[1,2,4]triazolo[1,5-c]pyrimidin-7-yl]-3-propan-2-ylurea], the figures for the concentration for half-maximal inhibition (IC50) in experiment [1] and in experiment [2] were below 10 nM and 10 to 100 nM, respectively.

Turning to `Cc1ccc(-c2nc(NC(=O)C3CC3)cc3nc(C4CNC4)nn23)o1` [Compound 164, N-[2-(azetidin-3-yl)-5-(5-methylfuran-2-yl)-[1,2,4]triazolo[1,5-c]pyrimidin-7-yl]cyclopropanecarboxamide], the IC50 was 10 to 100 nM in experiment [1] and above 1000 nM in experiment [2].

On to `Cc1nc2c3nc(C(F)(F)F)[nH]c3nc(-c3ccco3)n2n1` [Compound 165, 5-(furan-2-yl)-8-methyl-2-(trifluoromethyl)-3H-[1,2,4]triazolo[5,1-f]purine], for which the IC50 in experiment [1] and in experiment [2] was above 1000 nM throughout.

In the case of `Cc1ccc(-c2nc(N)cn3ncnc23)o1` [Compound 166, 8-(5-methylfuran-2-yl)-[1,2,4]triazolo[1,5-a]pyrazin-6-amine], the 50% inhibitory concentration (IC50) in experiment [1] and in experiment [2] was 100 to 1000 nM each time.

Take `Cc1ccc(-c2nc(NC(=O)C3CC3)cn3ncnc23)o1` [Compound 167, N-[8-(5-methylfuran-2-yl)-[1,2,4]triazolo[1,5-a]pyrazin-6-yl]cyclopropanecarboxamide]: the 50% inhibitory concentration (IC50) in experiment [1] and in experiment [2] was below 10 nM each time.

On to `Cc1nc2c(-c3ccc(C)o3)nc(N)cn2n1` [Compound 168, 2-methyl-8-(5-methylfuran-2-yl)-[1,2,4]triazolo[1,5-a]pyrazin-6-amine], for which the concentration for half-maximal inhibition (IC50) in experiment [1] is below 10 nM; in experiment [2], 10 to 100 nM.

In the case of `Cc1nc2c(-c3ccc(C)o3)nc(NC(=O)C3CC3)cn2n1` [Compound 169, N-[2-methyl-8-(5-methlfuran-2-yl)-[1,2,4]triazolo[1,5-a]pyrazin-6-yl]cyclopropanecarboxamide], the half-inhibitory concentration (IC50) in experiment [1] and in experiment [2] was below 10 nM in each case.

On to `Cc1nc2c(-c3ccc(F)cc3)nc(N)c(Cl)n2n1` [Compound 170, 5-chloro-8-(4-fluorophenyl)-2-methyl-[1,2,4]triazolo[1,5-a]pyrazin-6-amine], for which the IC50 in experiment [1] is below 10 nM; in experiment [2], 10 to 100 nM.

As for `Cc1nc2c(-c3ccc(F)cc3)nc(N)c(Br)n2n1` [Compound 171, 5-bromo-8-(4-fluorophenyl)-2-methyl-[1,2,4]triazolo[1,5-a]pyrazin-6-amine], the IC50 in experiment [1] was below 10 nM; in experiment [2], 10 to 100 nM.

On to `Cc1nc2c(-c3ccccc3)nc(N)c(Br)n2n1` [Compound 172, 5-bromo-2-methyl-8-phenyl-[1,2,4]triazolo[1,5-a]pyrazin-6-amine], for which the concentration for half-maximal inhibition (IC50) in experiment [1] and in experiment [2] was below 10 nM in each case.
